27 compounds from patent US10144746B2 (GLOBAL BLOOD THERAPEUTICS, INC., priority 2015, dated 2018) can be followed below.

The target in this assay is Human plasma kallikrein (Homo sapiens (Human), UniProt P03952). Description: In vitro plasma kallikrein inhibition assay (chromogenic substrate D-Pro-Phe-Arg-pNa, absorbance at 405 nm, IC50 determination). The format is biochemical. As to conditions: for IC50: read-out: KLKB1 pIC50 (converted). How it is done: In Vitro Plasma Kallikrein Inhibition Assay
Human plasma kallikrein, sequence (P03952 391-638): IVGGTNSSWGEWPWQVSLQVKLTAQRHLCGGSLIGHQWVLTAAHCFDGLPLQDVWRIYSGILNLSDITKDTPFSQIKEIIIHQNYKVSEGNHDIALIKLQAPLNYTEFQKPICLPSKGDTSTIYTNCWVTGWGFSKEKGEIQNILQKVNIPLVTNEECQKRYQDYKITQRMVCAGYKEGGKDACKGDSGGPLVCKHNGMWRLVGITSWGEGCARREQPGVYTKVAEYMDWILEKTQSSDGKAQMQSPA
Human plasma kallikrein, sequence (P03952 20-390 partner): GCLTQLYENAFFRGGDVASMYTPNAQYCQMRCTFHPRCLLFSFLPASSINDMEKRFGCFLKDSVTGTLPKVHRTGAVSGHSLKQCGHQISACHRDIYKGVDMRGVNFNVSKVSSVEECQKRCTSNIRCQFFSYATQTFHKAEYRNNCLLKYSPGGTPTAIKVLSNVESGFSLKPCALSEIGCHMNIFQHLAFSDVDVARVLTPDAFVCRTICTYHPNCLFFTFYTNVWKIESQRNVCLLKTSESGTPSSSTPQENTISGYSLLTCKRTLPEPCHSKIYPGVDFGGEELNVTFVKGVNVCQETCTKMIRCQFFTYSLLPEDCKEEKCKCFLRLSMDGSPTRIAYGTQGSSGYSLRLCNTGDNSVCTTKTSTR
The chromogenic substrate D-Pro-Phe-Arg-pNa, 2HCl (BIOPHEN CS-31(02) from Hyphen BioMed, Neuville-Sur-oise, France) was dissolved in 5 mL deionized water and stored at 4° C. […] All other chemicals were of analytical grade.
A stock solution of 7 μM in 50% glycerol was stored at −20° C.
Enzyme reactions were conducted in “assay buffer” comprised of 20 mM HEPES at pH 7.4, 150 mM NaCl, 0.1% PEG-8000 and 0.01% Triton X-100.
Both enzyme and substrate were diluted in assay buffer.
Plate measurements were conducted using a SPECTROStar Nano reader (BMG Labtech, San Francisco, Calif., USA). […] We used discrete wavelength, precise, kinetic reads of 15 cycles with a 60 sec cycle time.
Determination of IC50 values
The test compound was dissolved in 100% DMSO. The compounds were serially diluted in DMSO in a 7 point dose response. For the assays, 66.5 μL of protease solution (protease in assay buffer) was added per well followed by the addition of 8.5 μL of compound in 100% DMSO. […] After 30 min. incubation at room temperature on an orbital shaker, the reactions were started by the addition of 10 μL substrate solution (in assay buffer, final assay concentration was 600 uM). After the addition of the substrate solution the final DMSO concentration was 10%. The plate was placed again on the shaker for 5 sec, spun at 2000 rpm for 5 sec and read on the spectrophotometer. […] The IC50 value was calculated from the plot of rate vs. inhibitor concentration by a 4 parameter logistic equation: y=A+((B−A)/([…]))
where y is the rate at the inhibitor concentration, x. A is the minimum y value at the highest inhibitor concentration and B is the y value in the absence of inhibitor, C is the IC50 value and D is the slope factor. The curve fitting was conducted with the non-linear regression routine of the analysis software XLfit (IDBS, version 5.3.1).

Counter-ions that a name gives are not always drawn.

For `Cc1cc(N)nc(C)c1CNC(=O)c1ccc2c(c1)C1OC2c2ccc(-c3ccccc3F)cc21` (stereo not drawn), the “KLKB1 pIC50” value worked out at 6.91.

`Cc1cc(N)nc(C)c1CNC(=O)c1ccc2c(c1)C1OC2c2cc(N3CCN(C(=O)c4ccccc4)CC3)ccc21` (stereo not drawn): the “KLKB1 pIC50” value is 6.55.

For `Cc1cc(N)nc(C)c1CNC(=O)c1ccc2c(c1)C1OC2c2ccc(Br)cc21` (stereo not drawn), the “KLKB1 pIC50” value is listed as 6. `Cc1c(CNC(=O)c2ccc3c(c2)C2OC3c3ccc(-c4cccc(F)c4F)cc32)c(F)cc2c1CNC2` (stereo not drawn): the “KLKB1 pIC50” value was 5.

For the compound `Cc1cc(N)nc(C)c1CNC(=O)c1ccc2c(c1)[C@H]1O[C@@H]2c2ccc(-c3ccc(F)cc3F)cc21`, the “KLKB1 pIC50” value was determined as 4.44. As to `Cc1cc2c(c(C)c1CNC(=O)c1ccc3c(c1)C1OC3c3ccc(-c4ccc(F)cc4F)cc31)CNC2` (racemic), the IC50 was 316 nM. As to `Cc1cc(N)nc(C)c1CNC(=O)c1ccc2c(c1)C1OC2c2ccccc21` (racemic) [Example 1], the IC50 is 6310 nM. In the case of `Cc1cc(N)nc(C)c1CNC(=O)c1ccc2c(c1)C1OC2c2ccc(C[N+]3([O-])CCOCC3)cc21` (racemic) [Example 50], the IC50 is 3550 nM. Take `Cc1cc(N)nc(C)c1CNC(=O)c1ccc2c(c1)C1OC2c2ccc(Nc3ccn(C)n3)cc21` (racemic) [Example 51]: the IC50 was 933 nM. For the compound `Cc1cc(N)nc(C)c1CNC(=O)c1ccc2c(c1)C1OC2c2cc(Nc3ccnn3C)ccc21` (racemic) [Example 54], the IC50 was 457 nM. Same read-out and setting: to `Cc1cc(N)nc(C)c1CNC(=O)c1ccc2c(c1)C1OC2c2ccc(-c3ccc(F)cc3C#N)cc21` (racemic) [Example 69] belongs 6.31 nM; to `Cc1cc2c(c(C)c1CNC(=O)c1ccc3c(c1)C1OC3c3ccc(-c4cccc(F)c4F)cc31)CNC2` (racemic) [Example 100, trifluoroacetate salt], 6170 nM. Turning to `Cc1cc(N)nc(C)c1CNC(=O)c1ccc2c(c1)C1OC2c2ccc(-c3ccc(F)c(F)c3F)cc21` (racemic) [Example 104], the IC50 is 28.2 nM. Take `COc1cc(N)nc(C)c1CNC(=O)c1ccc2c(c1)C1OC2c2ccc(-c3ccc(C)cc3C#N)cc21` (racemic) [Example 105]: the IC50 was 15.1 nM.

As for `Cc1cc(N)nc(C)c1CNC(=O)c1ccc2c(c1)C1OC2c2ccc(-c3ccc(Cl)c(F)c3F)cc21` (racemic) [Example 106], the IC50 was 22.9 nM. Take `Cc1cc(N)nc(C)c1CNC(=O)c1ccc2c(c1)C1OC2c2ccc(-c3ccc(F)c4c3OCO4)cc21` (racemic) [Example 108, trifluoroacetate salt]: the IC50 was 25.7 nM. The same measure, in the same setting: to `Cc1cc(N)nc(C)c1CNC(=O)c1ccc2c(c1)C1OC2c2ccc(-c3ncccc3F)cc21` (racemic) [Example 110, trifluoroacetate salt] belongs 162 nM; to `Cc1cc(N)nc(C)c1CNC(=O)c1ccc2c(c1)C1OC2c2ccc(-c3ncc(F)cc3F)cc21` (racemic) [Example 116, (±)-N-[(6-amino-2,4-dimethylpyridin-3-yl)-methyl]-12-(3,5-difluoropyridin-2-yl)-15-oxatetracyclo[6.6.1.0^2,^7.0^9,1^4] pentadeca-2,4,6,9,11,13-hexaene-4-carboxamide], 45.7 nM; to `COc1cc(N)nc(C)c1CNC(=O)c1ccc2c(c1)C1OC2c2ccc(Cn3cccn3)cc21` (racemic) [Example 117, (±)-N-[(6-amino-4-methoxy-2-methylpyridin-3-yl)methyl]-12-[(1H-pyrazol-1-yl)methyl]-15-oxatetracyclo[6.6.1.0^2,^7.0^9,1^4] pentadeca-2,4,6,9,11,13-hexaene-4-carboxamide], 3.98 nM.

As to `Cc1ccc(-c2ccc3c(c2)C2OC3c3ccc(C(=O)NCc4c(C)cc(N)nc4C)cc32)c(F)c1F` (racemic) [Example 118, (±)-N-[(6-amino-2,4-dimethylpyridin-3-yl)-methyl]-12-(2,3-difluoro-4-methylphenyl)-15-oxatetracyclo[6.6.1.0^2,^7.0^9,1^4] pentadeca-2,4,6,9,11,13-hexaene-4-carboxamide], the IC50 is 64.6 nM.

As for `Cc1cc(N)nc(C)c1CNC(=O)c1ccc2c(c1)C1OC2c2ccc(-c3ccc(C(F)(F)F)c(F)c3F)cc21` (racemic) [Example 119, (±)-N-[(6-amino-2,4-dimethylpyridin-3-yl)-methyl]-12-[2,3-difluoro-4-(trifluoromethyl)-phenyl]-15-oxatetracyclo[6.6.1.0^2,^7.0^9,1^4] pentadeca-2,4,6,9,11,13-hexaene-4-carboxamide], the IC50 is 427 nM. Consider `Cc1cc(N)nc(C)c1CNC(=O)c1ccc2c(c1)C1OC2c2ccc(Oc3ccc(F)cc3F)cc21` (racemic) [Example 120, (±)-N-[(6-amino-2,4-dimethylpyridin-3-yl)-methyl]-12-(2,4-difluorophenoxy)-15-oxatetra-cyclo[6.6.1.0^2,^7.0^9,1^4] pentadeca-2,4,6,9,11,13-hexaene-4-carboxamide], for which the IC50 was 676 nM. For the compound `Cc1cc(N)nc(C)c1CNC(=O)c1ccc2c(c1)C1OC2c2ccc(-c3ccc(F)c(C(F)(F)F)c3)cc21` (racemic) [Example 121, (±)-N-[(6-amino-2,4-dimethylpyridin-3-yl)-methyl]-12-[4-fluoro-3-(trifluoromethyl)phenyl]-15-oxatetracyclo [6.6.1.0^2,^7.0^9,1^4]pentdeca-2,4,6,9,11,13-hexaene-4-carboxamide], the IC50 is 437 nM.

With `Cc1cc(N)nc(C)c1CNC(=O)c1ccc2c(c1)C1OC2c2ccc(Oc3ccc(F)c(F)c3)cc21` (racemic) [Example 122, (±)-N-[(6-amino-2,4-dimethylpyridin-3-yl)-methyl]-12-(3,4-difluorophenoxy)-15-oxatetracyclo[6.6.1.0^2,^7.0^9,1^4] pentadeca-2,4,6,9,11,13-hexaene-4-carboxamide], the IC50 was 148 nM.

Consider `Cc1cc(N)nc(C)c1CNC(=O)c1ccc2c(c1)C1OC2c2ccc(-c3ccc4[nH]cnc4c3)cc21` (racemic) [Example 123, (±)-N-[(6-amino-2,4-dimethylpyridin-3-yl)-methyl]-12-(1H-1,3-benzodiazol-5-yl)-15-oxatetracyclo[6.6.1.0^2,^7.0^9,1^4] pentadeca-2,4,6,9,11,13-hexaene-4-carboxamide], for which the IC50 was 282 nM. As to `Cc1cc2c(c(C)c1CNC(=O)c1ccc3c(c1)C1OC3c3ccc(-c4c(C)cccc4F)cc31)CNC2` (racemic) [Example 124, (±)-N-[(4,6-dimethyl-2,3-dihydro-1H-isoindol-5-yl)methyl]-12-(2-fluoro-6-methylphenyl)-15-oxatetracyclo[6.6.1.0^2,^7.0^9,1^4] pentadeca-2,4,6,9,11,13-hexaene-4-carboxamide], the IC50 was 11500 nM. `Cc1cc(CN)cc(C)c1CNC(=O)c1ccc2c(c1)C1OC2c2ccc(-c3ccc(Cl)c(F)c3F)cc21` (racemic) [Example 125, (±)-N-{[4-(aminomethy])-2,6-dimethylphenyl]-methyl}-12-(4-chloro-2,3-difluorophenyl)-15-oxatetracyclo-[6.6.1.0^2,^7.0^9,1^4]pentadeca-2,4,6,9,11,13-hexaene-4-carboxamide]: the IC50 is 661 nM.
